# Measured values published in patent US20030212104A1, “Treatment of diabetes and diabetic complications with NHE-1 inhibitors” (Pfizer Inc., priority 2002, published 2003).
# Test system: diabetic ob/ob mice
# Assay: Antidiabetic effect in diabetic ob/ob mice (plasma glucose, insulin, triglyceride)
# Assay type: in vivo
# Text: Five to eight week old male C57BLU6J-ob/ob mice (obtained from Jackson Laboratory, Bar Harbor, Me.) are housed five per cage under standard animal care practices. After a one week acclimation period, the animals are weighed and 25 microliters of blood are collected from the retro-orbital sinus prior to any treatment. The blood sample is immediately diluted 1:5 with saline containing 0.025% sodium heparin, and held on ice for metabolite analysis. Animals are assigned to treatment groups so that each group has a similar mean for plasma glucose concentration. After group assignment, animals are dosed orally each day for four days with the vehicle consisting of either: (1) 0.25% w/v methyl cellulose in water without pH adjustment; or (2) 0.1% Pluronic® P105 Block Copolymer Surfactant (BASF Corporation, Parsippany, N.J.) in 0.1% saline without pH adjustment. On day 5, the animals are weighed again and then dosed orally with a test compound or the vehicle alone. All compounds are administered in vehicle consisting of either: (1) 0.25% w/v methyl cellulose in water; or 3) neat PEG 400 without pH adjustment; (2) 10% DMSO/O.1% Pluronic® in 0.1% saline without pH adjustment; or 3) neat PEG 400 without pH adjustment. The animals are then bled from the retro-orbital sinus three hours later for determination of blood metabolite levels. The freshly collected samples are centrifuged for two minutes at 10,000×g at room temperature. The supernatant is analyzed for glucose, for example, by the Abbott VP™ (Abbott Laboratories, Diagnostics Division, Irving, Tex.) and VP Super System® Autoanalyzer (Abbott Laboratories, Irving, Tex.), or by the Abbott Spectrum CCX™ (Abbott Laboratories, Irving, Tex.) using the A-Gent™ Glucose-UV Test reagent system (Abbott Laboratories, Irving, Tex.) (a modification of the method of Richterich and Dauwalder, Schweizerische Medizinische Wochenschrift, 101: 860 (1971)) (hexokinase method) using a 100 mg/dl standard. Plasma glucose is then calculated by the equation: Plasma glucose (mg/dl)=Sample value×8.14
# where 8.14 is the dilution factor, adjusted for plasma hematocrit (assuming the hematocrit is 44%).
# Hypoglycemic activity of the test compounds is determined by statistical analysis (unpaired t-test) of the mean plasma glucose concentration between the test compound group and vehicle-treated group on day 5. The above assay carried out with a range of doses of a test compound allows the determination of an approximate minimal effective dose (MED) value for the in vivo reduction of plasma glucose concentration.
# Five to eight week old male C57BL/6J-ob/ob mice (obtained from Jackson Laboratory, Bar Harbor, Me.) are housed five per cage under standard animal care practices and fed standard rodent diet ad libitum. After a one week acclimation period, the animals are weighed and 25 microliters of blood are collected from the retro-orbital sinus prior to any treatment. The blood sample is immediately diluted 1:5 with saline containing 0.025% sodium heparin, and held on ice for plasma glucose analysis. Animals are assigned to treatment groups so that each group has a similar mean for plasma glucose concentration. The compound to be tested is administered by oral gavage as an about 0.02% to 2.0% solution (weight/volume (w/v)) in either (1) 10% DMSO/0.1% Pluronic® P105 Block Copolymer Surfactant (BASF Corporation, Parsippany, N.J.) in 0.1% saline without pH adjustment or (2) 0.25% w/v methylcellulose in water without pH adjustment. Alternatively, the compound to be tested can be administered by oral gavage dissolved in or in suspension in neat PEG 400. Single daily dosing (s.i.d.), twice daily dosing (b.i.d.) or other dosing regimen is maintained for 1 to, for example, 15 days. Control mice receive the 10% DMSO/0.1% Pluronic® P105 in 0.1 % saline without pH adjustment or the 0.25% w/v methylcellulose in water without pH adjustment, or the neat PEG 400 without pH adjustment. […]
# [1] = Study 1 conclusion: diabetic ob/ob mice, 20 mg/kg qd for five days
# [2] = Study 3 conclusion: diabetic ob/ob mice, 20 mg/kg bid for seven days
Molecule,"Day 5, 3h post-dose plasma insulin concentration (Study 1: ob/ob mice n=10, 20 mg/kg qd for five days, mean ± SD, vehicle control 57.7 ± 24.5, p = 0.000331)","Day 5, 3h post-dose plasma glucose concentration (Study 1: ob/ob mice n=10, 20 mg/kg qd for five days, mean ± SD, vehicle control 482 ± 139, p = 0.0498)",Plasma glucose concentration compared to the vehicle control group [1],Plasma insulin concentration compared to the vehicle control group [1],"Day 5, 3h post-dose plasma insulin concentration (Study 2: ob/ob mice n=10, 20 mg/kg bid for four days plus AM dose on fifth day, mean ± SD, vehicle control 10.0 ± 6.8)","Day 5, 3h post-dose plasma glucose concentration (Study 2: ob/ob mice n=10, 20 mg/kg bid for four days plus AM dose on fifth day, mean ± SD, vehicle control 322 ± 72, p = 0.0003)","Plasma glucose concentration compared to the vehicle control group (Study 2 conclusion: diabetic ob/ob mice, 20 mg/kg bid for four days)","Day 8, 3h post-dose plasma triglyceride concentration (Study 3: ob/ob mice n=15, 20 mg/kg bid for seven days plus AM dose on eighth day, mean ± SD, vehicle control 167 ± 44, p = 0.0002)","Day 8, 3h post-dose plasma glucose concentration (Study 3: ob/ob mice n=15, 20 mg/kg bid for seven days plus AM dose on eighth day, mean ± SD, vehicle control 397 ± 134, p = 0.0001)",Plasma glucose concentration compared to the vehicle control group [2],Plasma insulin concentration compared to the vehicle control group [2],Plasma triglyceride concentration compared to the vehicle control group [2]
N=C(N)NC(=O)c1cnn(-c2cccc3ncccc23)c1C1CC1 [[5-cyclopropyl-1-(quinolin-5-yl)-1H-pyrazole-4-carbonyl]guanidine],20.5 ± 10.3 µg/L,371 ± 90 mg/dL,significantly reduced,significantly reduced,,,,,,,,
[1-(2-trifluoromethyl-4-chlorophenyl)-5-cyclopropyl-1H-pyrazole-4-carbonyl]-guanidine,,,,,11.1 ± 9.0 µg/L,195 ± 50 mg/dL,significantly reduced,107 ± 24 mg/dL,204 ± 69 mg/dL,significantly reduced,significantly reduced,significantly reduced
